Non-standard residues stand in square brackets, D forms with d. Residues, ends and D or L forms follow the SMILES beside them. Gly(N-(CH2)6NH2) = NCCCCCCNCC(=O)O; Gly(N-2-aminoethyl) = NCCNCC(=O)O; Nspe = C[C@H](NCC(=O)O)c1ccccc1; Nphe = O=C(O)CNCc1ccccc1; Nlys = NCCCCNCC(=O)O
What was measured:
Type in all cases: cell-based
[1] = system: human erythrocytes; experiment: Haemolytic assay; conditions: peptoid 100 µM, 37 °C, 1 h, absorbance 450 nm; positive control 1% Triton x-100; n = 3 independent experiments, 3 replicates each
Protocol: The haemolytic assay was employed to determine the potential cytotoxicity of the peptoids against human red blood cells. Blood samples were collected with ethical approval and informed consent in vacutainer containers with dipotassium ethylene- diaminetetraacetic acid (K2-EDTA). Blood was then transferred to a 50 mL tube and centrifuged at 1200× g for 5 min at room temperature. The supernatant was removed and PBS was added to the original volume of sample obtained. This step was repeated a further 3 times. The red blood cells were then diluted to 8% of their original volume for use in the haemolytic assay. A 1% solution of Triton x-100 in PBS served as a positive control, and PBS was used as a negative control.
Peptoids 1, 2, 3, 4, 5, 6, 7, 8 and 9 were diluted in PBS to 200 µM. A total volume of 100 µL of each peptoid was placed in the wells of a v-bottomed 96-well microtitre plate. Red blood cells (100 µL), prepared as outlined above, were then added. The final peptoid concentration in each well was therefore 100 µM. The plate was sealed with an adhesive film to prevent evaporation and incubated at 37 °C for 1 h. Following this time, the plate was centrifuged at 4000 RPM for 5 min to pellet unlysed red blood cells. Following this step, 100 µL of supernatant was carefully removed from each well and added to a flat-bottomed 96-well microtitre plate. The absorbance was read at 450 nm using a Tecan Genios (Männedorf, Switzerland) plate reader, and the percentage of red blood cells lysed was calculated.

[2] = system: Fusobacterium nucleatum biofilm; experiment: Biofilm inhibition assay with PMA-qPCR; conditions: strain NCTC 10562, anaerobic, 96-well plate, 48 h with peptoid + 48 h maturation, n = 3 independent experiments
Protocol: The F. nucleatum type strain (NCTC 10562, originally isolated from human, inflamed gingival tissue) was obtained from the National Collection of Type Cultures. The optical density (OD) of an overnight culture was measured spectrophotometrically at 570 nm and diluted with fresh broth to an OD of 0.30–0.35. The culture was further diluted 1 in 50 with anaerobic broth, giving a final inoculum concentration of approximately 5 × 10^6 CFU/mL. A biofilm inhibition assay was undertaken in a 96-well plate format. Peptoids 4 and 9 were added along with the inoculum (90 µL of inoculum in broth and 10 µL of peptoid solution) to each well, to yield peptoid concentrations of 1 µM and 10 µM. A solution containing 10 µL of PBS and 90 µL of anaerobic broth acted as an untreated control. Biofilms were allowed to develop in the presence of peptoids 4 or 9 for 48 h. After 48 h biofilm development, planktonic cells were removed by gently washing three times with PBS and then replacing the broth with 100 µL of fresh anaerobic broth prior to a further 48 h incubation for biofilm maturation. After this time, the wells were gently washed three times with 100 µL of PBS to remove planktonic cells. Plates were then sealed with parafilm, and the biofilms were dislodged from the wells in an ultrasonic bath for 20 min. Plates were then returned to the anaerobic cabinet and the dislodged biofilm samples were collected in Eppendorf tubes.
Propidium monoazide (PMA)-qPCR was undertaken essentially as previously described. Briefly, PMA (Biotium, Fremont, CA, USA), was diluted 1 in 50 with PBS. The diluted PMA was then added to the dislodged biofilm samples in a 1:1 ratio in an Eppendorf tube, to give a final PMA concentration of 200 µM. The Eppendorfs were incubated at 37 °C for 10 min in the dark and then placed under a broad spectrum LED floodlight (ELRD, HL60 ^0 LEDx Max 0.1V) for 10 min. During this time, the Eppendorfs were inverted several times. Bacterial DNA was then extracted using the Qiagen blood and tissue kit (Germantown, MD, USA) according to the manufacturer’s instructions. Briefly, bacterial samples released from biofilms were centrifuged at 14000 RPM for 6 min, and the supernatant was removed. Bacterial pellets were resuspended in 200 µL of AL buffer, and 25 µL of proteinase K was added to each Eppendorf. The suspensions were then heated to 56 °C for 30 min with shaking. Following this, 200 µL of ethanol was added to each Eppendorf and mixed gently. The contents were placed in fresh spin columns in 2 mL collection tubes. The spin columns were centrifuged at 8000 RPM for 2 min. The flow-through and the collection tubes were discarded. The spin columns were placed in fresh collection tubes, and 500 µL of AW1 buffer was added to each column. […]

[3] = system: human primary gingival fibroblasts; experiment: MTT cell viability assay; conditions: peptoid 1 µM, 24 h, 37 °C; n = 3 independent experiments, 6 replicates each
Protocol: Cultured primary gingival fibroblast cells were obtained with ethical approval and informed consent, and were grown as previously described. Cells were seeded in 96-well plates at a concentration of 1 × 10^5 cells/mL (100 µL per well). Plates were incubated at 37 °C for 48 h to allow cells to reach confluence. Peptoids 1, 3, 4, 5, 6, 7 and 9 were diluted to 200 µM, 20 µM and 2 µM. The culture medium was removed and replaced with 50 µL of Dulbecco’s Modified Eagle’s Medium (DMEM) and 50 µL of the relevant peptoid. The cells were incubated for 24 h at 37 °C. After this time, 10 µL of 3-(4, 5- dimethylthiazol-2-yl)-2,5-diphenyltetrazolium bromide (MTT) reagent (Sigma-Aldrich, Poole, UK) was added to each well and the plate was incubated for a further 3 h at 37 °C. The medium was removed by aspiration and the wells were allowed to dry for 20 min. Then, 200 µL of dimethyl sulfoxide (DMSO) (Sigma-Aldrich, Poole, UK) was added to all wells and the plate was placed in an incubator for 30 min. The absorbance of the wells was read in a Tecan Genios (Männedorf, Switzerland) plate reader at 510 nm after 60 s of orbital shaking.

SMILES	Percentage lysis of human erythrocytes [1]	F. nucleatum biofilm formation (live cell numbers by PMA-qPCR) ([2]; peptoid 1 µM)	F. nucleatum biofilm formation (live cell numbers by PMA-qPCR) ([2]; peptoid 10 µM)	Viability of gingival fibroblasts (MTT) vs untreated controls [3]
NCCCCNCC(=O)N(CC(=O)N(CC(=O)N(CCCCN)CC(=O)N(CC(=O)N(CC(=O)N(CCCCN)CC(=O)N(CC(=O)N(CC(=O)N(CCCCN)CC(=O)N(CC(=O)N(CC(N)=O)Cc1ccccc1)Cc1ccccc1)Cc1ccccc1)Cc1ccccc1)Cc1ccccc1)Cc1ccccc1)Cc1ccccc1)Cc1ccccc1 [Peptoid 1] (H-[Nlys][Nphe][Nphe][Nlys][Nphe][Nphe][Nlys][Nphe][Nphe][Nlys][Nphe][Nphe]-NH2; N-terminus assumed)	≥ 10%	–	–	–
C[C@@H](c1ccccc1)N(CC(N)=O)C(=O)CN(C(=O)CN(CCCCN)C(=O)CN(C(=O)CN(C(=O)CN(CCCCN)C(=O)CN(C(=O)CN(C(=O)CNCCCCN)[C@@H](C)c1ccccc1)[C@@H](C)c1ccccc1)[C@@H](C)c1ccccc1)[C@@H](C)c1ccccc1)[C@@H](C)c1ccccc1 [Peptoid 3] (H-[Nlys][Nspe][Nspe][Nlys][Nspe][Nspe][Nlys][Nspe][Nspe]-NH2; N-terminus assumed)	≥ 10%	–	–	–
NCCNCC(=O)N(CC(=O)N(CC(=O)N(CCN)CC(=O)N(CC(=O)N(CC(=O)N(CCN)CC(=O)N(CC(=O)N(CC(=O)N(CCN)CC(=O)N(CC(=O)N(CC(N)=O)Cc1ccccc1)Cc1ccccc1)Cc1ccccc1)Cc1ccccc1)Cc1ccccc1)Cc1ccccc1)Cc1ccccc1)Cc1ccccc1 [Peptoid 4, (NaeNpheNphe)4-NH2] (H-[Gly(N-2-aminoethyl)][Nphe][Nphe][Gly(N-2-aminoethyl)][Nphe][Nphe][Gly(N-2-aminoethyl)][Nphe][Nphe][Gly(N-2-aminoethyl)][Nphe][Nphe]-NH2; N-terminus assumed)	≥ 10%	statistically significant reduction in biofilm formation	statistically significant reduction in biofilm formation	not to alter gingival fibroblast viability
C[C@@H](c1ccccc1)N(CC(N)=O)C(=O)CN(C(=O)CN(CCN)C(=O)CN(C(=O)CN(C(=O)CN(CCN)C(=O)CN(C(=O)CN(C(=O)CNCCN)[C@@H](C)c1ccccc1)[C@@H](C)c1ccccc1)[C@@H](C)c1ccccc1)[C@@H](C)c1ccccc1)[C@@H](C)c1ccccc1 [Peptoid 5] (H-[Gly(N-2-aminoethyl)][Nspe][Nspe][Gly(N-2-aminoethyl)][Nspe][Nspe][Gly(N-2-aminoethyl)][Nspe][Nspe]-NH2; N-terminus assumed)	≥ 10%	–	–	–
NCCCCCCNCC(=O)N(CC(=O)N(CC(=O)N(CCCCCCN)CC(=O)N(CC(=O)N(CC(=O)N(CCCCCCN)CC(=O)N(CC(=O)N(CC(=O)N(CCCCCCN)CC(=O)N(CC(=O)N(CC(N)=O)Cc1ccccc1)Cc1ccccc1)Cc1ccccc1)Cc1ccccc1)Cc1ccccc1)Cc1ccccc1)Cc1ccccc1)Cc1ccccc1 [Peptoid 6] (H-[Gly(N-(CH2)6NH2)][Nphe][Nphe][Gly(N-(CH2)6NH2)][Nphe][Nphe][Gly(N-(CH2)6NH2)][Nphe][Nphe][Gly(N-(CH2)6NH2)][Nphe][Nphe]-NH2; N-terminus assumed)	less than 5%	–	–	–
NCCCCCCNCC(=O)N(CC(=O)N(CC(=O)N(CCCCCCN)CC(=O)N(CC(=O)N(CC(=O)N(CCCCCCN)CC(=O)N(CC(=O)N(CC(N)=O)Cc1ccccc1)Cc1ccccc1)Cc1ccccc1)Cc1ccccc1)Cc1ccccc1)Cc1ccccc1 [Peptoid 7] (H-[Gly(N-(CH2)6NH2)][Nphe][Nphe][Gly(N-(CH2)6NH2)][Nphe][Nphe][Gly(N-(CH2)6NH2)][Nphe][Nphe]-NH2; N-terminus assumed)	less than 5%	–	–	–
C[C@@H](c1ccccc1)N(CC(N)=O)C(=O)CN(C(=O)CN(CCCCCCN)C(=O)CN(C(=O)CN(C(=O)CN(CCCCCCN)C(=O)CN(C(=O)CN(C(=O)CNCCCCCCN)[C@@H](C)c1ccccc1)[C@@H](C)c1ccccc1)[C@@H](C)c1ccccc1)[C@@H](C)c1ccccc1)[C@@H](C)c1ccccc1 [Peptoid 9, (NahNspeNspe)3-NH2] (H-[Gly(N-(CH2)6NH2)][Nspe][Nspe][Gly(N-(CH2)6NH2)][Nspe][Nspe][Gly(N-(CH2)6NH2)][Nspe][Nspe]-NH2; N-terminus assumed)	less than 5%	statistically significant reduction in biofilm formation	statistically significant reduction in biofilm formation	not to alter gingival fibroblast viability

— publication PMC8398059, “Peptoids with Antibiofilm Activity against the Gram Negative Obligate Anaerobe, Fusobacterium nucleatum” (Molecules, 2021)
